Reference: patent US9296734B2 (AMGEN INC., priority 2013, dated 2016)
Where two headings read alike, the source gives them in different places.

Experiments:
[1] = molecular target: Beta Secretase enzyme (BACE) (Homo sapiens (Human), UniProt P56817); assay: In vitro enzymatic BACE FRET assay; assay type: biochemical; settings: read-out: BACE 1 FRET assay IC50
In short: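 A quenched fluorophore-peptide spanning the BACE cleavage site served as substrate at 50 nM, with one-hour incubation in pH 4.2 acetate buffer containing 100 uM genapol and 10% DMSO final. Fluorescence was measured after quenching with Tris to neutral pH.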

[2] = tested on: Aβ40 in conditioned medium of cells stably expressing Amyloid Precursor Protein (APP); assay: In vitro BACE cell-based assay (Aβ40 sandwich ELISA); settings: Homo sapiens
In short: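 Aβ40 in supernatants was measured by time-resolved fluorescence sandwich ELISA using pAb40 capture and biotinylated 6E10 detection, with antibody incubations at 4 °C. Stable APP cells were exposed to compounds for 24 h in a 10-point series (top dose 100 or 10 µM, 0.1% DMSO). IC50 was fitted from the concentration-response.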

Cathepsin D (Cat D) = Cathepsin D (Cat D) (Homo sapiens (Human), UniProt P07339); assay: In vitro enzymatic Cathepsin D (Cat D) FRET assay; assay type: biochemical; settings: read-out: CatD IC50
In short: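 CHO-expressed recombinant Cat D cleaves a fluorophore/quencher FRET peptide (20 nM) in 0.05 M citrate pH 3.5, 5 mM CHAPS, 10% DMSO final, over 1 h. Tris addition neutralizes pH to stop the reaction; fluorescence read at excitation 500 nm, emission 580 nm.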

[3] = average IC50, BACE enzyme assay
[4] = HEK293, average IC50, HEK cell assay, read-out: HEK cell assay IC50
[5] = average IC50, cathepsin D enzyme assay
[6] = HEK293, average IC50, HEK cells, read-out: HEK cell assay IC50
[7] = HEK293, read-out: HEK cell assay IC50
[8] = HEK293, HEK cells, average, read-out: HEK cell assay IC50

Sequence of Cathepsin D (Cat D) (P07339 65-412, species assumed): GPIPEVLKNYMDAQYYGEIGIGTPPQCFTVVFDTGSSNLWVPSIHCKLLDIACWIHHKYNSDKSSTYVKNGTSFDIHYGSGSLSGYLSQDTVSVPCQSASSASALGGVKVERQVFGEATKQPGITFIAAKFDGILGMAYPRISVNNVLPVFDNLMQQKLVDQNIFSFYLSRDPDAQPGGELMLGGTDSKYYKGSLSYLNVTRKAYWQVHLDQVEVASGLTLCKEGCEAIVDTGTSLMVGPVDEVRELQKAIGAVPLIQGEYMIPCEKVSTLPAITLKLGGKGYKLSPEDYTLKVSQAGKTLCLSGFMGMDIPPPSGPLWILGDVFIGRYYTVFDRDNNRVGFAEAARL
Sequence of Beta Secretase enzyme (BACE) (P56817 46-501): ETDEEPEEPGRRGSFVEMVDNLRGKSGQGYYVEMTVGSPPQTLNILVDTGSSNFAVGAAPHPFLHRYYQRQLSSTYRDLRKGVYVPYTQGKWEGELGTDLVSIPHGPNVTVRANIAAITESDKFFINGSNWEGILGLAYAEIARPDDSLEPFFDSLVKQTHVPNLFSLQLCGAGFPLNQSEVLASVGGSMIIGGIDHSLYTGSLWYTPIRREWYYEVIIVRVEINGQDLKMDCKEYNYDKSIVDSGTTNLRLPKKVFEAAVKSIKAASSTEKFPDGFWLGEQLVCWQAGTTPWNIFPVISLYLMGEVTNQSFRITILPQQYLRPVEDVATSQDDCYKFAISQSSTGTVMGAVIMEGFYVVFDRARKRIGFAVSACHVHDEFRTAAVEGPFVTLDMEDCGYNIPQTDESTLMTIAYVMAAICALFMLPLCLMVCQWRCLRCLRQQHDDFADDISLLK

Row | IC50 [1, 3] [µM] | IC50 [2, 4] [µM] | IC50 (Cathepsin D (Cat D); [5]) [µM] | IC50 ([1]; average) [µM] | IC50 [2, 8] [µM] | IC50 (Cathepsin D (Cat D); average) [µM] | SMILES | also measured
1 | 0.013 | 0.093 | > 400 |  |  |  | C#CCOc1ccc(C(=O)Nc2cc(F)c(F)c([C@]3(CF)C[C@@H](C(F)(F)F)OC(N)=N3)c2)nc1 [Example 159, N-(3-((4S,6S)-2-amino-4-(fluoromethyl)-6-(trifluoromethyl)-5,6-dihydro-4H-1,3-oxazin-4-yl)-4,5-difluorophenyl)-5-(prop-2-yn-1-yloxy)picolinamide] | 
2 |  |  |  |  |  |  | N#Cc1cnc2c(Nc3ccc(F)c([C@]4(CF)C[C@@H](C(F)(F)F)OC(N)=N4)c3)nccc2c1 [Example 22, 8-((3-((4S,6S)-2-amino-4-(fluoromethyl)-6-(trifluoromethyl)-5,6-dihydro-4H-1,3-oxazin-4-yl)-4-fluorophenyl)amino)-1,7-naphthyridine-3-carbonitrile] | IC50 ([1]; average IC50): 0.021 µM; IC50 [2, 6]: 0.057 µM; IC50 (Cathepsin D (Cat D); average IC50): > 133 µM
3 | 0.0007 | 0.0032 | > 400 |  |  |  | CC#CCOc1cnc(C(=O)Nc2ccc(F)c([C@]3(CF)C[C@@H](C(F)(F)F)OC(N)=N3)c2)cn1 [Example 39, N-(3-((4S,6S)-2-amino-4-(fluoromethyl)-6-(trifluoromethyl)-5,6-dihydro-4H-1,3-oxazin-4-yl)-4-fluorophenyl)-5-(but-2-yn-1-yloxy)pyrazine-2-carboxamide] | 
4 |  |  |  | 0.071 | 0.011 | > 400 | COc1cc(Cl)cnc1C(=O)Nc1cc(F)c(F)c([C@]2(C)C[C@@H](C(F)(F)F)OC(N)=N2)c1 [Example 195, N-(3-((4S,6S)-2-amino-4-methyl-6-(trifluoromethyl)-5,6-dihydro-4H-1,3-oxazin-4-yl)-4,5-difluorophenyl)-5-chloro-3-methoxypicolinamide] | 
5 |  |  |  | 0.022 | 0.0066 | 424 | C[C@@]1(c2cc(NC(=O)c3ccc(Br)cn3)cc(F)c2F)C[C@@H](C(F)(F)F)OC(N)=N1 [Example 175, N-(3-((4S,6S)-2-amino-4-methyl-6-(trifluoromethyl)-5,6-dihydro-4H-1,3-oxazin-4-yl)-4,5-difluorophenyl)-5-bromopicolinamide] | 
6 | > 40 | > 15.6 | > 400 |  |  |  | C#Cc1ccc(-c2ccc(F)c([C@]3(CF)C[C@@H](C(F)(F)F)OC(N)=N3)c2)cn1 [Example 112, (4S,6S)-4-(5-(6-ethynylpyridin-3-yl)-2-fluorophenyl)-4-(fluoromethyl)-6-(trifluoromethyl)-5,6-dihydro-4H-1,3-oxazin-2-amine] | 
7 | > 40 | > 15.6 | 758 |  |  |  | NC1=N[C@](CF)(c2cc(-c3ncc4cc(F)ccc4n3)ccc2F)C[C@@H](C(F)(F)F)O1 [Example 114, (4S,6S)-4-(2-fluoro-5-(6-fluoroquinazolin-2-yl)phenyl)-4-(fluoromethyl)-6-(trifluoromethyl)-5,6-dihydro-4H-1,3-oxazin-2-amine] | 
8 |  |  |  | 2.2 | 3.1 | 721 | NC1=N[C@](CF)(c2cc(C#Cc3ccc4cc[nH]c4c3)ccc2F)C[C@@H](C(F)(F)F)O1 [Example 132, (4S,6S)-4-(5-((1H-indol-6-yl)ethynyl)-2-fluorophenyl)-4-(fluoromethyl)-6-(trifluoromethyl)-5,6-dihydro-4H-1,3-oxazin-2-amine] | 
9 |  |  |  | 0.118 | 0.085 | > 400 | COc1cnc(C(=O)Nc2cc(F)c(F)c([C@]3(C)C[C@@H](C(F)(F)F)OC(N)=N3)c2)c(C)n1 [Example 173, N-(3-((4S,6S)-2-amino-4-methyl-6-(trifluoromethyl)-5,6-dihydro-4H-1,3-oxazin-4-yl)-4,5-difluorophenyl)-5-methoxy-3-methylpyrazine-2-carboxamide] | 
10 |  |  |  |  |  |  | NC1=N[C@](CF)(c2cc(NC(=O)c3ccc(F)cn3)ccc2F)C[C@@H](C(F)(F)F)O1 [Example 57, N-(3-((4S,6S)-2-amino-4-(fluoromethyl)-6-(trifluoromethyl)-5,6-dihydro-4H-1,3-oxazin-4-yl)-4-fluorophenyl)-5-fluoropicolinamide] | IC50 ([1]; average IC50): 0.0725 µM; IC50 [2, 6]: 0.106 µM; IC50 (Cathepsin D (Cat D); average IC50): 4060 µM
11 |  |  |  | 0.091 | 0.029 | > 400 | COc1cc(Cl)cnc1C(=O)Nc1cc(C)c(F)c([C@]2(CF)C[C@@H](C(F)(F)F)OC(N)=N2)c1 [Example 222, N-(3-((4S,6S)-2-amino-4-(fluoromethyl)-6-(trifluoromethyl)-5,6-dihydro-4H-1,3-oxazin-4-yl)-4-fluoro-5-methylphenyl)-5-chloro-3-methoxypicolinamide] | 
12 | 38.9 | 5.14 | > 400 |  |  |  | CC(C)n1cc(Cl)c(C(=O)Nc2cnc(F)c([C@]3(C)C[C@@H](C(F)(F)F)OC(N)=N3)c2)n1 [Example 71, N-(5-((4S,6S)-2-amino-4-methyl-6-(trifluoromethyl)-5,6-dihydro-4H-1,3-oxazin-4-yl)-6-fluoropyridin-3-yl)-4-chloro-1-isopropyl-1H-pyrazole-3-carboxamide] | 
13 |  |  |  | 0.075 | 0.018 | 1270 | C[C@@]1(c2cc(NC(=O)c3cnc(C(F)F)cn3)cc(F)c2F)C[C@@H](C(F)(F)F)OC(N)=N1 [Example 193, N-(3-((4S,6S)-2-amino-4-methyl-6-(trifluoromethyl)-5,6-dihydro-4H-1,3-oxazin-4-yl)-4,5-difluorophenyl)-5-(difluoromethyl)pyrazine-2-carboxamide] | IC50 ([1]; average IC50): 0.0461 µM; IC50 [2, 6]: 0.0213 µM; IC50 (Cathepsin D (Cat D); average IC50): > 400 µM
14 | 27.4 | > 15.6 | 170 |  |  |  | CC#Cc1ccc(-c2ccc(F)c([C@]3(CF)C[C@@H](C(F)(F)F)OC(N)=N3)c2)cn1 [Example 113, (4S,6S)-4-(2-fluoro-5-(6-(prop-1-yn-1-yl)pyridin-3-yl)phenyl)-4-(fluoromethyl)-6-(trifluoromethyl)-5,6-dihydro-4H-1,3-oxazin-2-amine] | 
15 |  |  |  |  |  |  | C[C@@]1(c2nc(NC(=O)c3ccc(Cl)cn3)ccc2F)C[C@@H](C(F)(F)F)OC(N)=N1 [Example 83, N-(6-((4S,6S)-2-amino-4-methyl-6-(trifluoromethyl)-5,6-dihydro-4H-1,3-oxazin-4-yl)-5-fluoropyridin-2-yl)-5-chloropicolinamide] | IC50 ([1]; average IC50): 0.103 µM; IC50 [2, 6]: 0.0389 µM; IC50 (Cathepsin D (Cat D); average IC50): > 400 µM
16 | 11.5 | 0.908 | > 400 |  |  |  | C[C@@]1(c2cc(NC(=O)N3CC=CCC3)ccc2F)C[C@@H](C(F)(F)F)OC(N)=N1 [Example 123, N-(3-((4S,6S)-2-amino-4-methyl-6-(trifluoromethyl)-5,6-dihydro-4H-1,3-oxazin-4-yl)-4-fluorophenyl)-5,6-dihydropyridine-1(2H)-carboxamide] | 
17 |  |  |  | > 40 | > 15.6 | > 400 | CNC(=O)c1ccnc(C#Cc2ccc(F)c([C@]3(CF)C[C@@H](C(F)(F)F)OC(N)=N3)c2)c1 [Example 129, 2-((3-((4S,6S)-2-amino-4-(fluoromethyl)-6-(trifluoromethyl)-5,6-dihydro-4H-1,3-oxazin-4-yl)-4-fluorophenyl)ethynyl)-N-methylisonicotinamide] | 
18 | 0.169 | 0.132 | 717 |  |  |  | NC1=N[C@](CF)(c2nc(NC(=O)c3ccc(Cl)cn3)ccc2F)C[C@@H](C(F)(F)F)O1 [Example 136, N-(6-((4S,6S)-2-amino-4-(fluoromethyl)-6-(trifluoromethyl)-5,6-dihydro-4H-1,3-oxazin-4-yl)-5-fluoropyridin-2-yl)-5-chloropicolinamide] | IC50 ([1]; average IC50): 32 µM; IC50 [2, 6]: > 15.6 µM; IC50 (Cathepsin D (Cat D); average IC50): > 400 µM
19 |  |  |  | 0.577 | 1.81 | 381 | NC1=N[C@](CF)(c2cc(C#Cc3ccc4[nH]ccc4c3)ccc2F)C[C@@H](C(F)(F)F)O1 [Example 131, (4S,6S)-4-(5-((1H-indol-5-yl)ethynyl)-2-fluorophenyl)-4-(fluoromethyl)-6-(trifluoromethyl)-5,6-dihydro-4H-1,3-oxazin-2-amine] | 

Row | SMILES | IC50 [1, 3] [µM] | IC50 [2, 4] [µM] | IC50 (Cathepsin D (Cat D); [5]) [µM] | IC50 ([1]; average) [µM] | IC50 [2, 8] [µM] | IC50 (Cathepsin D (Cat D); average) [µM] | also measured
20 | COc1cc(C#N)cnc1C(=O)Nc1cc(F)c(F)c([C@]2(C)C[C@@H](C(F)(F)F)OC(N)=N2)c1 [Example 168, N-(3-((4S,6S)-2-amino-4-methyl-6-(trifluoromethyl)-5,6-dihydro-4H-1,3-oxazin-4-yl)-4,5-difluorophenyl)-5-cyano-3-methoxypicolinamide] | 0.051 |  | > 400 |  |  |  | IC50 [2, 7]: 0.0061 µM
21 | Cc1cc(OCC(F)(F)F)cnc1C(=O)Nc1cc(C)c(F)c([C@]2(CF)C[C@@H](C(F)(F)F)OC(N)=N2)c1 [Example 220, N-(3-((4S,6S)-2-amino-4-(fluoromethyl)-6-(trifluoromethyl)-5,6-dihydro-4H-1,3-oxazin-4-yl)-4-fluoro-5-methylphenyl)-3-methyl-5-(2,2,2-trifluoroethoxy)picolinamide] |  |  |  | 0.066 |  | 263 | IC50 [2, 7]: 0.429 µM
22 | C[C@@]1(c2cc(NC(=O)c3cnc(C(F)F)cn3)cc(Cl)c2F)C[C@@H](C(F)(F)F)OC(N)=N1 [Example 211, N-(3-((4S,6S)-2-amino-4-methyl-6-(trifluoromethyl)-5,6-dihydro-4H-1,3-oxazin-4-yl)-5-chloro-4-fluorophenyl)-5-(difluoromethyl)pyrazine-2-carboxamide] |  |  |  | 0.062 |  | 604 | IC50 [2, 7]: 0.047 µM
